Test results as given in publication PMC3743770, “A Selective HDAC 1/2 Inhibitor Modulates Chromatin and Gene Expression in Brain and Alters Mouse Behavior in Two Mood-Related Tests” (PLoS ONE, 2013).
Read-outs that look alike come from different tables or passages of the source.

Tests used:
HDAC5 = HDAC5 (Homo sapiens, UniProt Q9UQL6); assay: HDAC inhibition assay, recombinant enzyme, Caliper EZ reader
[1] = Mouse brain pharmacokinetics; type: in vivo; conditions: for half-life: read-out: brain T1/2 (converted)
Experimental: Plasma, brain samples, and dose formulations, were analyzed as previously described using high performance liquid chromatography/mass spectrometry. Data acquisition and control system were created using Analyst 1.4 software (ABI Inc, Canada).

HDAC9 = HDAC9 (Homo sapiens, UniProt Q9UKV0); assay: HDAC inhibition assay, recombinant enzyme, Caliper EZ reader
HDAC7 = biological target: T1, HDAC7 (Homo sapiens, UniProt Q8WUI4); assay: as above
T1 sequence (Q8WUI4 1-952): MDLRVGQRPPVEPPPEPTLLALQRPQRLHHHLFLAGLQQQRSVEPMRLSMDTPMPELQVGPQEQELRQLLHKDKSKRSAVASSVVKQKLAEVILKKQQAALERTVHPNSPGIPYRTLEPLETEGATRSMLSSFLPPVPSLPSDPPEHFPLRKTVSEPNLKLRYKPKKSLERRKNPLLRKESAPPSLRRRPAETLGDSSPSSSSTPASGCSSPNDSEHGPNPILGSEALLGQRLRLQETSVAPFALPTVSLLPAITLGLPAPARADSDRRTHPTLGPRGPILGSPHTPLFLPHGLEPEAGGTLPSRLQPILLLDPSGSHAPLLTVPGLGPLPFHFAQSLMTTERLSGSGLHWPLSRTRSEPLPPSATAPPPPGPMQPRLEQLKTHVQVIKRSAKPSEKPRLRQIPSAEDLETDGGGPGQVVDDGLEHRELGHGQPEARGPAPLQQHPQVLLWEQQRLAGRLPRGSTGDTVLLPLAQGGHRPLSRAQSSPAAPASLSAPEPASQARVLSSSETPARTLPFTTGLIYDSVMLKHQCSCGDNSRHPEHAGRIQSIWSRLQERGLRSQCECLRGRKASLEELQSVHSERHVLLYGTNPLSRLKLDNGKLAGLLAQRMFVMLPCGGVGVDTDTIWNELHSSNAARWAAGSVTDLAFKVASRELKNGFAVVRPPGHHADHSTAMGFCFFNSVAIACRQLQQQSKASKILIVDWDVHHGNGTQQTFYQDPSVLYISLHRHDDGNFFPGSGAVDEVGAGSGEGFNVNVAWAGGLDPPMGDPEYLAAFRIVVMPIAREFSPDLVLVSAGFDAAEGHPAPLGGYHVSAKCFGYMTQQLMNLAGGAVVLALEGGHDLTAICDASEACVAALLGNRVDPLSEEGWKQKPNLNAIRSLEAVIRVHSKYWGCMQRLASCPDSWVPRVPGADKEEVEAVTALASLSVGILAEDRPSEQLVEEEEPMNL

mice = assay: Tolerability of chronic treatment; type: in vivo; conditions: Cpd-60 45 mg/kg i.p., SAHA 25 mg/kg i.p.
C57BL/6 mice [2] = assay: Amphetamine-induced hyperlocomotion (AIH); type: in vivo, mouse; conditions: chronic i.p.; Cpd-60 45 mg/kg, SAHA 25 mg/kg; vs vehicle; amphetamine 3.5 mg/kg
Experimental: (§1) Compounds were administered between 9 am and 1 pm for 7 days prior to the start of behavioral testing, and after completion of each daily session during behavioral testing. Testing was performed 18–24 hr after the previous treatment to avoid transient effects. Amphetamine-induced hyperlocomotion (AIH) was performed as previously described on days 7–9 of treatment with activity measured before and after amphetamine challenge (AccuScan Instruments, Inc.). Forced-swim test (FST) behavior was performed as previously described on day 10 of treatment and total time spent immobile during a 6 min session was scored automatically (Ethovision; Noldus). Treatment effects were analyzed by one way analysis of variance (ANOVA) with post hoc analysis using Least Squared Differences test (SPSS v18.0 IBM).

[3] = test system: H4K12 acetylation in HEK293 cells; assay: H4K12 acetylation western blot, constant exposure and washout; type: cell-based, human; conditions: for H4K12ac levels after washout: HEK293, 20 µM 24 hr, then 6 hr after media change; for H4K12ac levels, constant exposure: HEK293, 20 µM for 24 hr
Experimental: Frozen mouse brains (n = 6/treatment group) were rapidly dissected at 4°C to isolate frontal cortex (including PFC), ventral striatum (including NAc), and HIP for protein extraction. […] Solutions for protein extraction were supplemented with 5 mM sodium butyrate to suppress residual HDAC activity. […] Densitometric quantification was performed using Image J software (NIH) and statistical comparison to vehicle-treated controls by two-tailed t-test.
Protein was extracted by douncing in suspension buffer: 0.1 M NaCl, 0.01 M TrisCl (ph7.6), 0.001 M EDTA (pH 8.0), then immediately diluted with an equal volume of 2x SDS-gel loading buffer: 100 mM TrisCl (ph 6.8), 4% SDS, 20% glycerol, 200 mM DTT. […] Media was aspirated and cells collected for Western blotting using 40 μL buffers as detailed above for mouse brain. Solutions for protein extraction were supplemented with 5 mM sodium butyrate to suppress residual HDAC activity. Samples were denatured at 95°C for 5 min, passaged 3x through a 25 gauge needle and centrifuged at 10,000g for 10 min at room temperature and protein quantification performed using a BCA protein assay kit #23225 (Pierce). […] Chemiluminescent detection of immunoreactivity was performed using SuperSignal West Dura Substrate #34076 (Pierce) with subsequent densitometric quantification using Image J software (NIH) and statistical comparison to vehicle-treated controls by two-tailed t-test.

[4] = test system: H4K12ac around TSS of Agxt2l1, Sgk1, Sult1a1, Tsc22d3; assay: Chromatin immunoprecipitation (H4K12ac) of nucleus accumbens with qPCR; conditions: NAc; 0.5 kB downstream of each TSS; 45 mg/kg i.p. 10 days
HDAC4 = HDAC4 (Homo sapiens, UniProt P56524); assay: biochemical
[5] = test system: 80 common CNS targets including receptors, channels and transporters; assay: CNS target binding assays (Cerep High-Throughput Profile P-3); conditions: 10 µM, duplicate; significance 50% inhibition of control binding
Description: The specific ligand binding to the receptors is defined as the difference between the total binding and the nonspecific binding determined in the presence of an excess of unlabelled ligand. […] The experiment was accepted in accordance with Cerep’s validation Standard Operating Procedure.

[6] = test system: transcripts in PFC, NAc and HIP; assay: Whole genome transcript profiling of brain regions (microarray); type: in vivo, mouse; conditions: for overlap with the 121 transcripts modulated by lithium: Gene Set Enrichment Analysis; for transcripts altered across the three regions: PFC, NAc, HIP compiled, ≥[…] vs vehicle; for transcripts up- or down-regulated, summed across the three brain regions: Tukey's HSD p<0.05 vs vehicle
Experimental: Frozen mouse brains (n = 6/treatment group) were rapidly dissected at 4°C to isolate medial prefrontal cortex (PFC), nucleus accumbens (NAc) and hippocampus (HIP) for mRNA extraction. Whole genome transcript profiling was performed using the Illumina MouseWG-6 Expression BeadChip with subsequent validation by quantitative real-time PCR (qPCR) and is available online at the NCBI Gene Expression Omnibus repository (GSE47452).
Frozen mouse brains (n = 6/ treatment group) were rapidly dissected at 4°C, isolating medial prefrontal cortex, nucleus accumbens and hippocampus. […] For microarray experiments on Illumina MouseWG-6 BeadChips, RNA samples were pooled from two biological replicates such that the total number of samples was 27 (3 treatment groups x 3 brain regions x 3 RNA pools representing two mice per pool). All microarray analysis and gene set analysis (GSA) was performed using GeneSpring software (v.11.5.1) with raw signals adjusted using quantile normalization and baseline transformation with the median signal in all samples set to zero. Data were included in subsequent analyses if the normalized signal, thresholded at 0.8, was ‘present’ for 3 of 3 replicates for like treatment and tissue groups. […] Primer sequences for qPCR validation were designed using NCBI PRIMER-BLAST (Table S2).

[7] = test system: histone H4K12 acetylation in cultured primary mouse neuronal cells; assay: Mouse primary neuronal histone acetylation assay; conditions: Neuron, 24 h, read-out: EC50 for H4K12 acetylation
[8] = Positron emission tomography of carbon-11 labeled Cpd-60; type: in vivo, baboon (Papio anubis); conditions: intravenous, preliminary unpublished data
Description: Male 11 wk old C57BL/6 mice were utilized for pharmacokinetic, behavioral and biochemical analyses. One female baboon (Papio Anubis) was used to determine brain uptake and pharmacokinetics of Cpd-60. […] Non-human primate housing conditions and feeding regimens were coordinated by the professional investigative staff at the Brookhaven Laboratory Animal Facility which included social housing in cages appropriate for the physical and behavioral health of the individual animal. Animals were fed a 3x per day with additional nutritional supplements provided as prescribed by the attending veterinarian. Environmental enrichment included audio, video and tactile elements (e.g. listening to the radio, watching television, playing with toys and human interaction) and were provided on a daily basis to promote psychological well-being. All procedures were performed without compromising animal welfare and all efforts were made to minimize suffering including adequate use of anesthesia (ketamine, isoflurane) in the baboon imaging experiment. The baboon was not sacrificed following the study and further effort was taken to minimize suffering by allowing an interval of at least one month between subsequent imaging studies in the same animal.
C57BL/6 male mice were purchased at 10 weeks of age from The Jackson Laboratory and Taconic Farms. […]

HDAC8 = biological target: T2, HDAC8 (Homo sapiens, UniProt Q9BY41); assay: HDAC inhibition assay, recombinant enzyme, Caliper EZ reader
T2 sequence (Q9BY41 1-377): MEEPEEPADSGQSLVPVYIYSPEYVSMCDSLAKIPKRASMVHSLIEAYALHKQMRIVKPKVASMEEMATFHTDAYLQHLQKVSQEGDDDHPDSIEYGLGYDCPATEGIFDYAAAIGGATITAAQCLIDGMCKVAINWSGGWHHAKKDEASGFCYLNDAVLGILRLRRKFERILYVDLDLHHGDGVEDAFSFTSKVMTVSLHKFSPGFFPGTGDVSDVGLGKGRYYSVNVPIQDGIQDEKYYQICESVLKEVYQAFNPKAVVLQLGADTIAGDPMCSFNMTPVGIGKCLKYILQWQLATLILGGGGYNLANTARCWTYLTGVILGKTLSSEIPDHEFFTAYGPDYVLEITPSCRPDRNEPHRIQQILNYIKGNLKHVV

C57BL/6 mice [9] = assay: Forced-swim test (FST); type: in vivo, mouse
Experimental: as §1

C57BL/6 mice [10] = conditions: 85 mg/kg i.p.; cited from earlier work
[11] = test system: transcripts in whole brain; conditions: chronic lithium, ref McQuillin et al, 2007; cited from earlier work
[12] = chronic i.p., day 10, Cpd-60 45 mg/kg, SAHA 25 mg/kg, vs vehicle

HDAC4, sequence (P56524 whole entry): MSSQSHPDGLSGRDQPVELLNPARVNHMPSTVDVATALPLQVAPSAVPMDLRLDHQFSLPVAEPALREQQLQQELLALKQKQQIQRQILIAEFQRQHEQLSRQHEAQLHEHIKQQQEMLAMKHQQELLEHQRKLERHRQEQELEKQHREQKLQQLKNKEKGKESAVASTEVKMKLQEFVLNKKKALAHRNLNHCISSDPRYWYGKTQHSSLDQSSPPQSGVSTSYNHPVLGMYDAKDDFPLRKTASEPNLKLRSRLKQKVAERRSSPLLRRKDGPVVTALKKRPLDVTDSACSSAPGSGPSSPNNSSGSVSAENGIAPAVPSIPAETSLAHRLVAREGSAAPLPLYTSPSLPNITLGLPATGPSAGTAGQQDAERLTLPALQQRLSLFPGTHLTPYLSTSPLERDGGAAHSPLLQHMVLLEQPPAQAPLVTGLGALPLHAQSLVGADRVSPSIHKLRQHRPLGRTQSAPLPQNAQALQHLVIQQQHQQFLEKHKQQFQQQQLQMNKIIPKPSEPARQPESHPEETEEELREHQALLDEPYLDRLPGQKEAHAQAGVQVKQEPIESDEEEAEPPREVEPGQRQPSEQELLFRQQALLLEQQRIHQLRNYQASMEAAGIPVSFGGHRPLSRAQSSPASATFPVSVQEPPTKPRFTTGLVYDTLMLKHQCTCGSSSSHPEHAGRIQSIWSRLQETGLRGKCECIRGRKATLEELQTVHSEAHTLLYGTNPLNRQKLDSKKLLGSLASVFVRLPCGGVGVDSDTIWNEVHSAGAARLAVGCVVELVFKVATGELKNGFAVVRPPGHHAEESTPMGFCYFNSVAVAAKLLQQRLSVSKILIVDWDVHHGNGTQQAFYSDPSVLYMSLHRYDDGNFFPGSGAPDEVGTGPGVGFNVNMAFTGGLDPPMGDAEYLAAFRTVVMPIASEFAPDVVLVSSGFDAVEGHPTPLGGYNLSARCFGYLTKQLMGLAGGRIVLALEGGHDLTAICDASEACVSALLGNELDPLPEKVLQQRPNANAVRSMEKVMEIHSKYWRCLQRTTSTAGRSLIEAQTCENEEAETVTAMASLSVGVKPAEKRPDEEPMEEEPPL
HDAC9, sequence (Q9UKV0 whole entry): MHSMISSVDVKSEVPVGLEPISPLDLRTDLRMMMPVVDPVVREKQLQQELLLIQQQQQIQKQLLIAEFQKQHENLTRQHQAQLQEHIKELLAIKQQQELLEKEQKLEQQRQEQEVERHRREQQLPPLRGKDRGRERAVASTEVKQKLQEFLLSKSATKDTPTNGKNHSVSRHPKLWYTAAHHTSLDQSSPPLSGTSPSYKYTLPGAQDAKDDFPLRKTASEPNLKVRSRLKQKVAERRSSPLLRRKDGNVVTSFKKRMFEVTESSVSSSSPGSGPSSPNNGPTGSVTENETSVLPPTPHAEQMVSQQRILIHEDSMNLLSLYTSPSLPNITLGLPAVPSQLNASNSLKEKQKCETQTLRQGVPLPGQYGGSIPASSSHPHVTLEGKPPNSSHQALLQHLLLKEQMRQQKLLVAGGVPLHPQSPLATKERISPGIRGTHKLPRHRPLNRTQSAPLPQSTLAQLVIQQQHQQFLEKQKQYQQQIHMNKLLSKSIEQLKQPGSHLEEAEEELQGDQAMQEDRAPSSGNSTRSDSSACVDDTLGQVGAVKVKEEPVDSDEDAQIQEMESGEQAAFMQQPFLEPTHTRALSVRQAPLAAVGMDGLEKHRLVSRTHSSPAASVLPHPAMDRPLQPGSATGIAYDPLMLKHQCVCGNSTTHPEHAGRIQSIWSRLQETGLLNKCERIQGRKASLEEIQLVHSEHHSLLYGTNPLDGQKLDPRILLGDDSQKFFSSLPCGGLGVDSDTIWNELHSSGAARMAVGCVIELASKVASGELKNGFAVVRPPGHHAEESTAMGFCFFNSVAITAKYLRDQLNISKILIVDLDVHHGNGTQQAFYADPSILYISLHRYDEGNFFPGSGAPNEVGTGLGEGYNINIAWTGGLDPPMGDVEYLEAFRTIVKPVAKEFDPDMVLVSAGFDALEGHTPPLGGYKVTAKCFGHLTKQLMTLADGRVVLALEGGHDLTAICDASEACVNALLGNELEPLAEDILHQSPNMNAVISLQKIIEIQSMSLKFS
HDAC5, sequence (Q9UQL6 whole entry): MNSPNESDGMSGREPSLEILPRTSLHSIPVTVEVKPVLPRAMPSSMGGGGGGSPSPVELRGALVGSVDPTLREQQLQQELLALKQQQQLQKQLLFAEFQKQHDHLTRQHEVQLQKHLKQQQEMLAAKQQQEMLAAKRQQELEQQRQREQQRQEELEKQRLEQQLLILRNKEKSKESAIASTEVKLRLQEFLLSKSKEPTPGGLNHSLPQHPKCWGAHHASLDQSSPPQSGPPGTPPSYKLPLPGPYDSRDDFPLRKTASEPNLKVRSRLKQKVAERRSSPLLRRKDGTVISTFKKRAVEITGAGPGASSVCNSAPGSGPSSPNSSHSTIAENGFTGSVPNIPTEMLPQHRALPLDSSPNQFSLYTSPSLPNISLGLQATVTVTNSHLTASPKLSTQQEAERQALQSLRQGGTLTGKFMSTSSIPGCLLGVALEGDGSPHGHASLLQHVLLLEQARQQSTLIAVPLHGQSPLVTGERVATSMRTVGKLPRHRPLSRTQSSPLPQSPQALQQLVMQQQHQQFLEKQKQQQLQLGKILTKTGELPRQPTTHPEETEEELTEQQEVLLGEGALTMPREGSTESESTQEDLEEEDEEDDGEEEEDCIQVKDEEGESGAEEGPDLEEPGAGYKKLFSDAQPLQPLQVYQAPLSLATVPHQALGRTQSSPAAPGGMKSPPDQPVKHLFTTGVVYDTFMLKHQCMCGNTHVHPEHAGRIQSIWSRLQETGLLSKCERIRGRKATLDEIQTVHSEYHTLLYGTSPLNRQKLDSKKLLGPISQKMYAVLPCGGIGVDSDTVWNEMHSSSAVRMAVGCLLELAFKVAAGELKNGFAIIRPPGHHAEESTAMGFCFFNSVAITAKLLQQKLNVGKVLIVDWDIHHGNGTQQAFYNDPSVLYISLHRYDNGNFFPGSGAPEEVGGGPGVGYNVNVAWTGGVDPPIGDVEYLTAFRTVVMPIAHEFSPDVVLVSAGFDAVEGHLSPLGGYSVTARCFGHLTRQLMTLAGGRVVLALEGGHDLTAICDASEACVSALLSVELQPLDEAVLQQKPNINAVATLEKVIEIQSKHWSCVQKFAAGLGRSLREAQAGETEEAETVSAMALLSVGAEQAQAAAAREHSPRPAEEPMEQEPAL

For `CC(=O)Nc1ccc(C(=O)Nc2cc(-c3cccs3)ccc2N)cc1` [Cpd-60], the IC50 (HDAC5) was over 30 µM, the concentration at 8 hr ([1]; C57BL/6, mouse, brain, intraperitoneal, 45 mg/kg, systemic treatment, read-out: brain concentration maintained for at least 8 hr) was over 100 nM and the Cmax ([1]; C57BL/6, mouse, brain, ip, 45 mg/kg, read-out: brain maximum concentration (Cmax)) was 830 nM. For the same compound, the half-life ([1]; C57BL/6, mouse, brain, ip) was 6.44 h, the “time to peak brain concentration” value ([1]; systemic treatment) was at most 5 min and the IC50 (HDAC9) was over 30 µM. For the same compound, the IC50 (HDAC7) was over 30 µM, the “tolerability of treatment for longer than 10 days” value (mice) was “not well tolerated” and the “reduction of amphetamine-induced hyperlocomotion” value (C57BL/6 mice [2]) was 36%. For the same compound, the “H4K12ac levels after washout” value [3] was “persistent increases in H4K12ac”, the “H4K12ac levels, constant exposure” value [3] was “elevated H4K12ac levels” and the “H4K12ac levels downstream of the TSS” value [4] was “lower than vehicle-treated controls”. The IC50 (HDAC4) was over 30 µM, the “binding to 80 CNS targets” value [5] was “no significant binding to any of the targets” and the “overlap with the 121 transcripts modulated by lithium” value [6] was 11. The “transcripts altered across the three regions” value [6] was 390, the “transcripts up- or down-regulated, summed across the three brain regions” value [6] was 1609 and the EC50 [7] was 7.2 µM. The “brain uptake by PET” value [8] was “reaches the brain, albeit at low levels relative to plasma”, the IC50 (HDAC8) was over 30 µM and the “reduction in immobility time” value (C57BL/6 mice [9]; [12]) was 67%.
In the case of `O=C(CCCCCCC(=O)Nc1ccccc1)NO` [SAHA, suberoylanilide hydroxamic acid], the half-life ([1]; C57BL/6, mouse, brain, ip) is reported as 0.44 h, the “time until cleared from the brain” value ([1]; systemic treatment) is reported as at most 2 h and the “reduction of amphetamine-induced hyperlocomotion” value (C57BL/6 mice [2]) is reported as “no effect”. For the same compound, the “H4K12ac levels after washout” value [3] was “only Cpd-60-treated cells showed persistent increases in H4K12ac”, the “H4K12ac levels, constant exposure” value [3] was “elevated H4K12ac levels” and the “overlap with the 121 transcripts modulated by lithium” value [6] was “no significant overlap”. The “transcripts altered across the three regions” value [6] was 288, the “transcripts up- or down-regulated, summed across the three brain regions” value [6] was 1530 and the “downregulated transcripts HIP (total)” value ([6]; ≥[…], post hoc p<0.05) was 148. For the same compound, the “downregulated transcripts NAc (total)” value ([6]; ≥[…], post hoc p<0.05) was 16, the “downregulated transcripts PFC (total)” value ([6]; ≥[…], post hoc p<0.05) was 5 and the “upregulated transcripts HIP (total)” value ([6]; ≥[…], post hoc p<0.05) was 104. The “upregulated transcripts NAc (total)” value ([6]; ≥[…], post hoc p<0.05) was 5, the “upregulated transcripts PFC (total)” value ([6]; ≥[…], post hoc p<0.05) was 7 and the “reduction in immobility time” value (C57BL/6 mice [9]; [12]) was “did not influence mouse behavior in either paradigm”.
In the case of `CNCCCN1c2ccccc2CCc2ccccc21` [desipramine], the “reduction in immobility time” value (C57BL/6 mice [9]; 15 mg/kg i.p., n = 16/group, data not shown) is reported as 55%.
In the case of `[Li]` [lithium], the “reduction in immobility time” value (C57BL/6 mice [10]) is given as 48%, the Agxt2l1 fold change [11] is given as 2.73 fold change and the Igfbp5 fold change [11] is given as -1.56 fold change. The Mef2c fold change [11] was -1.22 fold change, the Mfsd2 fold change [11] was 2.65 fold change and the Nrxn1 fold change [11] was -1.18 fold change. For the same compound, the Per2 fold change [11] was 2.47 fold change, the Qdpr fold change [11] was -1.46 fold change and the Sgk1 fold change [11] was 2.85 fold change. For the same compound, the Sult1a1 fold change [11] was 6.28 fold change, the Tsc22d3 fold change [11] was 1.95 fold change and the Usp54 fold change [11] was 1.57 fold change.
